The source of these data is patent publication US8742098B2, “Inhibitors of Bruton's tyrosine kinase” (Hoffmann-La Roche Inc., priority 2011, dated 2014).

Some results are limits rather than exact numbers.

This test relates to B cell receptor-mediated activation of B cells in human blood. As to the kind of experiment: Inhibition of B cell activation in whole blood measured by CD69 expression. It counts as cell-based. The note with it: anti-IgM stimulation, 20 hours, CD69-positive cells that are also CD20-positive, read-out: HWB IC50. On the procedure: A procedure to test the ability of Btk inhibitors to suppress B cell receptor-mediated activation of B cells in human blood is as follows:
Human whole blood (HWB) is obtained from healthy volunteers, with the following restrictions: 24 hr drug-free, non-smokers. Blood is collected by venipuncture into Vacutainer tubes anticoagulated with sodium heparin. Test compounds are diluted to ten times the desired starting drug concentration in PBS (20×), followed by three-fold serial dilutions in 10% DMSO in PBS to produce a nine point dose-response curve. 5.5 μl of each compound dilution is added in duplicate to a 2 ml 96-well V bottom plate (Analytical Sales and Services, #59623-23); 5.5 μl of 10% DMSO in PBS is added to control and no-stimulus wells. HWB (100 μl) is added to each well, and after mixing the plates are incubated at 37 C, 5% CO2, 100% humidity for 30 minutes. Goat F(ab′)2 anti-human IgM (Southern Biotech, #2022-14) (10 μl of a 500 μg/ml solution, 50 μg/ml final concentration) is added to each well (except the no-stimulus wells) with mixing and the plates are incubated for an additional 20 hours.
At the end of the 20 hour incubation, samples are incubated with florescent-probe-labeled anti-bodies (15 μl PE Mouse anti-Human CD20, BD Pharmingen, #555623, and/or 20 ul APC Mouse anti-Human CD69, BD Pharmingen #555533) for 30 minutes, at 37 C, 5% CO2, 100% humidity. Included are induced control, unstained and single stains for compensation adjustments and initial voltage settings. Samples are then lysed with 1 ml of 1× Pharmingen Lyse Buffer (BD Pharmingen #555899), and plates are centrifuged at 1800 rpm for 5 minutes. Supernatants are removed via suction and the remaining pellets are lysed again with another 1 ml of 1× Pharmingen Lyse Buffer, and plates are spun down as before. Supernatants are aspirated and remaining pellets are washed in FACs buffer (PBS+1% FBS). After a final spin, the supernantants are removed and pellets are resuspended in 180 μl of FACs buffer. Samples are transferred to a 96 well plate suitable to be run on the HTS 96 well system on the BD LSR II flow cytometer.
Using appropriate excitation and emission wavelengths for the fluorophores used, data are acquired and percent positive cell values are obtained using Cell Quest Software. Results are initially analyzed by FACS analysis software (Flow Jo). […] The IC50 values are calculated using XLfit software version 3, equation 201.

With `CN1CCC(c2ccc(Nc3cc(-c4cccc(-n5ncc6cc(C(C)(C)C)cc(F)c6c5=O)c4CO)cn4ccnc34)nc2)CC1` [Compound I-11, 6-tert-Butyl-8-fluoro-2-{2-hydroxymethyl-3-[8-(1′-methyl-1′,2′,3′,4′,5′,6′-hexahydro-[3,4′]bipyridinyl-6-ylamino)-imidazo[1,2-a]pyridin-6-yl]-phenyl}-2H-phthalazin-1-one], the IC50 (in general, the concentration at which inhibition is half-maximal) was determined as 0.072 µM.

Turning to `CN1CCN(Cc2ccc(Nc3cc(-c4cccc(-n5ncc6cc(C(C)(C)C)cc(F)c6c5=O)c4CO)nn4ccnc34)nc2)CC1` [Compound I-4, 6-tert-Butyl-8-fluoro-2-(2-hydroxymethyl-3-{8-[5-(4-methyl-piperazin-1-ylmethyl)-pyridin-2-ylamino]-imidazo[1,2-b]pyridazin-6-yl}-phenyl)-2H-phthalazin-1-one], the IC50 was found to be 0.013 µM.

On to `CC(C)(C)c1cc(F)c2c(=O)n(-c3cccc(-c4ccnc(Nc5ccc(C(=O)N6CCOCC6)cn5)c4)c3CO)ncc2c1` [Compound I-6, 6-tert-Butyl-8-fluoro-2-(2-hydroxymethyl-3-{2-[5-(morpholine-4-carbonyl)-pyridin-2-ylamino]-pyridin-4-yl}-phenyl)-2H-phthalazin-1-one], for which the IC50 amounted to 0.48 µM.

On to `CC(C)(C)c1cc(F)c2c(=O)n(-c3cccc(-c4cnnc(Nc5ccc(C(=O)N6CCOCC6)cn5)c4)c3CO)ncc2c1` [Compound I-5, 6-tert-Butyl-8-fluoro-2-(2-hydroxymethyl-3-{6-[5-(morpholine-4-carbonyl)-pyridin-2-ylamino]-pyridazin-4-yl}-phenyl)-2H-phthalazin-1-one], for which the IC50 came out at 0.89 µM.

Consider `CC(C)(C)c1cc(F)c2c(=O)n(-c3cccc(-c4cn5ccnc5c(Nc5ccc(C(=O)N6CCOCC6)cc5)n4)c3CO)ncc2c1` [Compound I-7, 6-tert-Butyl-8-fluoro-2-(2-hydroxymethyl-3-{8-[4-(morpholine-4-carbonyl)-phenylamino]-imidazo[1,2-a]pyrazin-6-yl}-phenyl)-2H-phthalazin-1-one], for which the IC50 came out at 0.112 µM.

For `CC(C)(C)c1cc(F)c2c(=O)n(-c3cccc(-c4cc(Nc5ccc(C(=O)N6CCOCC6)cn5)c5ncnn5c4)c3CO)ncc2c1` [Compound I-1, 6-tert-Butyl-8-fluoro-2-(2-hydroxymethyl-3-{8-[5-(morpholine-4-carbonyl)-pyridin-2-ylamino]-[1,2,4]triazolo[1,5-a]pyridin-6-yl}-phenyl)-2H-phthalazin-1-one], the IC50 came out at 0.35 µM.

On to `CC(C)(C)c1cc(F)c2c(=O)n(-c3cccc(-c4cc(Nc5ccc(C(=O)N6CCOCC6)cn5)c5nccn5c4)c3CO)ncc2c1` [Compound I-10, 6-tert-Butyl-8-fluoro-2-(2-hydroxymethyl-3-{8-[5-(morpholine-4-carbonyl)-pyridin-2-ylamino]-imidazo[1,2-a]pyridin-6-yl}-phenyl)-2H-phthalazin-1-one], for which the concentration for half-maximal inhibition (IC50) stood at 0.142 µM.

Regarding `CC(C)N1CCN(c2ccc(Nc3cc(-c4cccc(-n5ncc6cc(C(C)(C)C)cc(F)c6c5=O)c4CO)nn4ccnc34)nc2)CC1` [Compound I-3, 6-tert-Butyl-8-fluoro-2-(2-hydroxymethyl-3-{8-[5-(4-isopropyl-piperazin-1-yl)-pyridin-2-ylamino]-imidazo[1,2-b]pyridazin-6-yl}-phenyl)-2H-phthalazin-1-one], the IC50 amounted to 0.04 µM.

In the case of `CC(C)(C)c1cc(F)c2c(=O)n(-c3cccc(-c4cc(Nc5ccc(C(=O)N6CCOCC6)cn5)c5nccn5n4)c3CO)ncc2c1` [Compound I-2, 6-tert-Butyl-8-fluoro-2-(2-hydroxymethyl-3-{8-[5-(morpholine-4-carbonyl)-pyridin-2-ylamino]-imidazo[1,2-b]pyridazin-6-yl}-phenyl)-2H-phthalazin-1-one], the concentration for half-maximal inhibition (IC50) was 0.077 µM.

Regarding `CC(C)(C)c1cc(F)c2c(=O)n(-c3cccc(-c4cc(Nc5ccc(C(=O)N6CCOCC6)cn5)c5ncccc5c4)c3CO)ncc2c1` [Compound I-13, 6-tert-Butyl-8-fluoro-2-(2-hydroxymethyl-3-{8-[5-(morpholine-4-carbonyl)-pyridin-2-ylamino]-quinolin-6-yl}-phenyl)-2H-phthalazin-1-one], the 50% inhibitory concentration (IC50) was more than 5 µM.

For `CC(C)(C)c1cc(F)c2c(=O)n(-c3cccc(-c4cc(Nc5ccc(C(=O)N6CCOCC6)cc5)c5nccn5c4)c3CO)ncc2c1` [Compound I-9, 6-tert-Butyl-8-fluoro-2-(2-hydroxymethyl-3-{8-[4-(morpholine-4-carbonyl)-phenylamino]-imidazo[1,2-a]pyridin-6-yl}-phenyl)-2H-phthalazin-1-one], the IC50 stood at 1.04 µM.

Take `CC(C)(C)c1cc(F)c2c(=O)n(-c3cccc(-c4cc(Nc5ccc(C(=O)N6CCOCC6)cn5)ncn4)c3CO)ncc2c1` [Compound I-12, 6-tert-Butyl-8-fluoro-2-(2-hydroxymethyl-3-{6-[5-(morpholine-4-carbonyl)-pyridin-2-ylamino]-pyrimidin-4-yl}-phenyl)-2H-phthalazin-1-one]: the IC50 was 2.5 µM.

Consider `CN1CCC(c2ccc(Nc3nc(-c4cccc(-n5ncc6cc(C(C)(C)C)cc(F)c6c5=O)c4CO)cn4ccnc34)cc2)CC1` [Compound I-8, 6-tert-Butyl-8-fluoro-2-(2-hydroxymethyl-3-{8-[4-(1-methyl-piperidin-4-yl)-phenylamino]-imidazo[1,2-a]pyrazin-6-yl}-phenyl)-2H-phthalazin-1-one], for which the IC50 came to 2.27 µM.
